Results taken from patent US8097238B2, “Cell targeting conjugates” (Peter MacCallum Cancer Institute, priority 2004, dated 2012).
Several values for one entry are separate records, joined by “and”; a condition that tells them apart may be missing. Equal values may be shown once. Starred links: 1 amine or outer side, 2 acyl side, 3 side chain; linkers in the order of their positions; H or OH if unused. Positions of bridges follow the written chain, without caps; N, C: chain ends. Non-standard residues stand in square brackets, D forms with d. Residues, ends and D or L forms follow the SMILES beside them. Chains are numbered I, II in the order given. Actinocin(9to1) = Cc1c2oc3c(C)ccc(C(=O)[*:1])c3nc-2c(C(=O)[*:2])c(N)c1=O; NMeV = CN[C@H](C(=O)O)C(C)C; Sar = CNCC(=O)O

What was measured:
[1] = tested on: DNA; details: literature values; cited from earlier work
[2] = tested on: plasmid DNA; test: Plasmid DNA breakage, ^123I/^125I double isotope method; type: biochemical
Description: The experimental design exploits the plasmid DNA assay system, and agarose gel electrophoresis, as described previously to evaluate DNA breakage by the labelled minor groove binding DNA ligand, ^125I-iodoHoechst 33258 (Lobachevsky, Karagiannis and Martin 2004).
The accumulation of DNA single-stranded breaks and DNA double-stranded breaks is monitored by quantitation of the decline in the fraction of intact supercoiled plasmid (S), and the corresponding increase in the fractions of relaxed (R) and linear (L) species, with the progressive accumulation of decay events. Various assumptions enable the derivation of the relationship between the parameters S, R and L (or their normalised counterparts S′, R′ and L′), the number of decay events (n), and for example, the yield of double-stranded breaks per decay (d) of isotope in DNA-bound ligand. […] Accordingly, a double isotope strategy was developed, using a mixture of ^123I- and ^125I-iodoHoechst 33258. This approach yields a ratio d values, providing an estimate of the relative efficiency (^123I relative to ^125I) for double-strand breaks per decay, which is independent of f.
The basis of the double isotope method is apparent from the following relationship:
Where n1 is the number of ^123I decays, and n1m is the maximum (ie at time=infinity) number of ^123I decays.
A plot of the LHS term of the above equation versus n2 (the number of ^125I decay events in the incubation mixture) yields a two phase curve, the 2nd phase of which approaches a straight line (when n1=n1m). The values for the apparent breakage DNA dsb efficiency of ^123I and ^125I decays (da1 and da2, respectively) are obtained from the y intercept and from the gradient of the asymptote of the second phase of the curve, as shown in FIG. 14.
The apparent breakage efficiency is related to the actual efficiency of DNA-bound decay events, d, by the expression: da=df+δA
Where δA is the term for the “external” component of damage, arising from decay of non-DNA-bound isotope, which can be ignored because of the particular conditions of the
[formula] experiment, particularly, a low DNA concentration, A. Thus analysis of the data as exemplified in FIG. 14 provides the ratio of breakage efficiencies of ^123I versus ^125I decays.

[3] = tested on: K562 cells; details: survival curve studies (Karagiannis, Lobachevsky and Martin 2000); cited from earlier work
[4] = tested on: K562 cells; test: Clonogenic survival of K562 cells after ^125I-ligand incubation; type: cell-based, human; details: 20 hours at 37° C., 200 nM protein
Procedure: K562 cells were washed three times in serum-free RPMI 1640 containing 20 mM HEPES and 80 I.U./ml gentamicin. In the representative experiment, cells (5×10^5 per ml) were incubated with a series of radioactive doses of ^125I-diferric transferrin (highest dose 3.8 μCi/ml; specific activity 18.9 Ci/mmole, 200 nM protein concentration) or with a series of radioactive doses of the required meta-^127I/^125I-iodoHoechst-transferrin conjugate (highest doses 17.5, 10.1 and 18.3 μCi/ml, specific activities 87.5, 53.3 and 98 Ci/mmole protein for the disulphide, acylhydrazone and amide linked meta-^127I/^125I-iodoHoechst-transferrin conjugates, respectively, protein concentration 200 nM, conjugation number 2.8, 2.9 and 3.1 for the disulphide, acylhydrazone and amide linked conjugates, respectively) for 20 hours at 37° C. To ensure that cytotoxicity was mediated by decay of ^125I, control assays were performed in parallel with unlabelled meta-^127I-iodoHoechst-transferrin conjugates. Furthermore, to determine whether the ^125I-induced cytotoxicity was mediated by transferrin receptor-mediated endocytosis, control assays were performed in parallel in the presence of a 50-fold molar excess of unlabelled diferric transferrin. Following incubation, the cell-pellets were isolated by centrifugation at 400×g for 3 minutes and suspended in the α-modification of Eagle's medium containing 20% (v/v) fetal bovine serum, 20 mM HEPES, 2 mM L-glutamine and 80 I.U./ml gentamicin. An appropriate cell number from each of the samples was then cloned in semi-solid (0.33% (w/v)) noble agar in 6-well microtiter plates.

[5] = tested on: K562 cells; test: Accumulation of cell-associated ^125I-activity in K562 cells; type: cell-based, human; details: 200 nM protein, 37° C.
Procedure: At the required time intervals (0-20 hours), the cell-associated and extracellular ^125I-ligands were separated by centrifugation at 400×g for 3 minutes and the cell-associated ^125I-activity and the ^125I-activity in the supernatants were counted in a […] (80% counting efficiency; Perkin Elmer Inc.). To elucidate whether the meta-^127I/^125I-iodoHoechst-transferrin conjugates were internalized specifically via transferrin receptor mediated endocytosis, assays were performed in parallel in the presence of 100-fold molar excess of unlabelled diferric transferrin.
In parallel with the experiment described in Example 19, cultures of K562 cells with one of the three labeled DNA ligand—transferring conjugates were incubated at 0° C., a condition that inhibits receptor-mediated endocytosis. Other assays were performed in parallel at 37° C. in the presence of the metabolic inhibitors […] (50 mM) and sodium azide (0.1% (w/v)), which are known to inhibit transferrin receptor mediated endocytosis (Ciechanover, et al. 1983).

[6] = tested on: K562 nuclei; test: Accumulation of nuclear-associated ^125I-activity in K562 nuclei; type: cell-based, human; details: 200 nM protein, 37° C.
Procedure: After incubation for 5 minutes at 0° C., an equal volume of hypotonic buffer containing 1% (v/v) Triton X-100 was added while vortexing, and the cells were sheared by passage through a 22-gauge needle. The nuclei were separated from the cytosol by centrifugation at 1000×g for 10 minutes and the nuclear preparations were washed in hypotonic buffer and pipetted to avoid clumping. The concentration of nuclei isolated from each sample was determined by counting with a hemocytometer and the nuclear- and cytoplasm-associated ^125I-activity was determined by β-counting. In parallel assays, the nuclei were washed with 10 mM Tris-HCl, 140 mM NaCl, pH 8.3 (isotonic buffer) by centrifugation at 1000×g for 10 minutes and the nuclear associated ^125I-activity and the ^125I-activity in the supernatants was determined by β-counting.

[7] = tested on: K562 nuclei; test: Nuclear fluorescence of K562 cells after photolytic deiodination (quantitative fluorescence microscopy); type: cell-based, human
Procedure: The delivery of ortho-iodoHoechst to K562 nuclei following incubation of cells with the acylhydrazone linked transferrin-ortho-iodoHoechst conjugate was examined by quantitative fluorescence microscopy, after photolytic deiodination. K562 cells in RPMI 1640 containing 3% FBS, 20 mM HEPES and 80 I.U./ml gentamicin were incubated with the acylhydrazone linked conjugate ([…], conjugation number 1.5) for 24 hours at 37° C. Following incubation the cells were irradiated with 200 Jm^−2 UVA to generate in situ the dehalogenated ligand, which is much more fluorescent than the iodinated ligand. The cells were then washed by centrifugation and the cell-pellet was resuspended in 50 μl PBS without Ca^2+/Mg^2+. Aliquots (20 μl) were placed onto microscope slides and were allowed to air-dry. Prior to microscopy a drop of 30% PBS and 100 μM dithiothreitol in Tissuetek was added to the cells. K562 cells were observed using a fluorescence microscope (Zeiss) and a standard Hoechst filter set. Analysis of nuclear fluorescence was performed using a Bio-Rad Molecular Imager® Fx (Bio-Rad Laboratories, Hercules, Calif., USA) and Quantity One™ 4.1.1 software.

[8] = tested on: plasmid DNA; test: Plasmid DNA breakage, ^124I/^125I double isotope experiments; type: biochemical
Description: In experiments exactly analogous to those described in Example 25, induction of DNA double-strand breaks was investigated for ^124I-iodoHoechst 33258. The results of preliminary experiments (to our knowledge the first such experiments done with DNA-associated ^124I) are shown in FIG. 15 and Table 4.

[9] = incubation period between 4-20 hours

COc1cccc2c1C(=O)c1c(O)c3c(c(O)c1C2=O)C[C@@](O)(C(=O)CO)C[C@@H]3O[C@H]1C[C@H](N)[C@H](O)[C@H](C)O1 [doxorubicin]
association constant for equilibrium binding to DNA (affinity) [1]: about 10^6 M^−1

CN1CCN(c2ccc3nc(-c4ccc5nc(-c6ccc(O)c(I)c6)[nH]c5c4)[nH]c3c2)CC1 [^125I-iodoHoechst 33258, reference compound]
da2(^125I), apparent DNA dsb breakage efficiency ([2]; DMSO added to 10% (D series)): 0.252 and 0.248 and 0.258 | da2(^125I), apparent DNA dsb breakage efficiency ([2]; aqueous buffer (N series)): 0.413 and 0.397 and 0.474 | decays corresponding to a lethal event [3]: about 130 ^125I decays per nucleus

Cc1c2oc3c(C)ccc(C(=O)N[C@@H]4C(=O)N[C@H](C(C)C)C(=O)N5CCC[C@H]5C(=O)N(C)CC(=O)N(C)[C@@H](C(C)C)C(=O)O[C@@H]4C)c3nc-2c(C(=O)N[C@@H]2C(=O)N[C@H](C(C)C)C(=O)N3CCC[C@H]3C(=O)N(C)CC(=O)N(C)[C@@H](C(C)C)C(=O)O[C@@H]2C)c(N)c1=O [Actinomycin D] (I: T[dV]P[Sar][NMeV] / II: T[dV]P[Sar][NMeV]; ester I:1-I:C, II:1-II:C; linker I:N-II:N via Actinocin(9to1))
association constant for equilibrium binding to DNA (affinity) [1]: about 10^6 M^−1

^125I-transferrin: ^125I-labelled human diferric transferrin, unconjugated comparator [reference compound]
dose required to produce on average one lethal event per cell (D37) [4]: 31.8 μCi/ml | rate of increase of cell-associated ^125I-activity ([5]; after first 2 hours until approximately 4-5 hours): approximately 0.8 fmoles ^125I-ligand/cell/minute | rate of increase of cell-associated ^125I-activity ([5]; approximately the first 2 hours of incubation): approximately 5.2 fmoles ^125I-ligand/cell/minute | rate of decrease in cell-associated ^125I-activity ([5]; incubation period between 5-20 hours): approximately 0.2 fmoles ^125I-ligand/cell/minute | accumulation of ^125I-activity in the nuclei [6]: not observed

amide linked meta-^127I/^125I-iodoHoechst-transferrin conjugate: meta-^127I/^125I-iodoHoechst conjugated to transferrin via an amide linkage (Example 16, FIG. 4)
dose required to produce on average one lethal event per cell (D37) [4]: 8.9 μCi/ml | rate of increase of cell-associated ^125I-activity ([5]; first 4 hours of incubation): ~3.6 fmoles ^125I-ligand/cell/minute | rate of increase of cell-associated ^125I-activity [5, 9]: ~2.6 fmoles ^125I-ligand/cell/minute | rate of increase of nuclear-associated ^125I-activity [6]: 0.13 fmole ^125I-ligand/cell/minute

acylhydrazone linked transferrin-ortho-iodoHoechst conjugate: transferrin linked to ortho-iodoHoechst via an acylhydrazone linkage, conjugation number 1.5
nuclear fluorescence in K562 cell nuclei ([7]; conjugation number 1.5, 24 hours at 37° C., then 200 Jm^−2 UVA): significant fluorescence | inhibition of nuclear fluorescence ([7]; in the presence of 100-fold molar excess unmodified transferrin): largely inhibited

disulphide linked meta-^127I/^125I-iodoHoechst-transferrin conjugate: meta-^127I/^125I-iodoHoechst conjugated to thiolated transferrin via a disulphide linkage (Example 14, FIG. 2)
dose required to produce on average one lethal event per cell (D37) [4]: 6.0 μCi/ml | rate of increase of cell-associated ^125I-activity ([5]; first 4 hours of incubation): approximately 7.2 fmoles ^125I-ligand/cell/minute | rate of increase of cell-associated ^125I-activity [5, 9]: approximately 6.1 fmoles ^125I-ligand/cell/minute | rate of increase of nuclear-associated ^125I-activity [6]: 0.21 fmole ^125I-ligand/cell/minute

acylhydrazone linked meta-^127I/^125I-iodoHoechst-transferrin conjugate: meta-^127I/^125I-iodoHoechst conjugated to thiolated transferrin via an acylhydrazone linkage (Example 15, FIG. 3)
dose required to produce on average one lethal event per cell (D37) [4]: 3.8 μCi/ml | rate of increase of cell-associated ^125I-activity ([5]; first 4 hours of incubation): ~10.4 fmoles ^125I-ligand/cell/minute | rate of increase of cell-associated ^125I-activity [5, 9]: ~5.7 fmoles ^125I-ligand/cell/minute | rate of increase of nuclear-associated ^125I-activity [6]: 0.38 fmole ^125I-ligand/cell/minute

CN1CCN(c2ccc3nc(-c4ccc5nc(-c6ccc(O)c(I)c6)[nH]c5c4)[nH]c3c2)CC1 [^124I-iodoHoechst 33258]
efficiency of DNA-associated decays in DNA double-strand break induction ([8]; compared with the ^123I counterpart): at least as efficient as those of the ^123I counterpart | da1(^124I)/da2(^125I) ([8]; preliminary experiments): 0.76 and 0.71 and 0.82 and 0.75 | Average da1(^124I)/da2(^125I) ([8]; samples A2, A3, B1, B2): 0.76 ± 0.05
